According to PubChem BioAssay AID1817 (Sanford-Burnham Center for Chemical Genomics, 2009):
Calls of active or inactive are those of the source.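 The calls were made as follows: active = displacement of at least 50% at 20 µM, with a fluorescence ratio check between 0.3 and a set limit; inactive = the rest.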

Each compound was assayed against E3 ubiquitin-protein ligase SIAH1 (Homo sapiens) (UniProt Q8IUQ4) (assay: blockers of Siah-1 interaction with plectin peptide – biochemical, fluorescence polarization, rhodamine-plectin, uHTS, primary screen (AID 1817)). Conditions: Siah-1 / rhodamine-plectin peptide fluorescence polarization.
Chain of E3 ubiquitin-protein ligase SIAH1 (Homo sapiens) (Q8IUQ4 whole entry, looked up): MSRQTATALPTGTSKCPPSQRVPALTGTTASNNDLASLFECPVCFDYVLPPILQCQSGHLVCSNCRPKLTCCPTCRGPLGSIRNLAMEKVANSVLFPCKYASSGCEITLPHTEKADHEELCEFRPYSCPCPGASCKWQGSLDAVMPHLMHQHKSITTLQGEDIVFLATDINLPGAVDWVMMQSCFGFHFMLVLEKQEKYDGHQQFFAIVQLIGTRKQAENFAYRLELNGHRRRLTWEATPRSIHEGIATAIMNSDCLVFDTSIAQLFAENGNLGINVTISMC
With COC(=O)c1ccc2c(c1)C(C)(C)C(/C=C/c1ccccc1O)=[N+]2C the IC50 was > 200 µM (inactive). In the case of O=S(=O)(Nc1cc2nc3ccccc3nc2n1Cc1ccccc1)c1ccc(Cl)cc1, the IC50 is reported as > 200 µM (inactive). In the case of COc1ccc(-c2cnnn2-c2ccc(N)cc2)cc1OC, the IC50 is reported as > 200 µM (inactive). N#C/C(=C\c1c(F)cccc1Cl)C(=O)NC1CC1 was tested, and the IC50 was > 200 µM (inactive). In the case of CCC(C)N1C(=O)/C(=C/c2c(NCCCOC(C)C)nc3c(C)cccn3c2=O)SC1=S (stereo not drawn), the IC50 is reported as > 200 µM (inactive). In the case of CC1CCN(S(=O)(=O)c2nnc(NC(=O)c3cccc(Cl)c3)s2)CC1, the IC50 is reported as > 200 µM (inactive). In the case of CCN(CC)CCOC(=O)c1ccc(N/C=C(/C#N)c2nc(-c3cc4ccccc4oc3=O)cs2)cc1, the IC50 is reported as 11.2 µM. For O=C(Nc1cc([N+](=O)[O-])ccc1N1CCOCC1)c1cccs1, the IC50 was > 200 µM (inactive). For NS(=O)(=O)c1ccc(NS(=O)(=O)c2ccc(NC(=O)c3ccc(-c4ccccc4)cc3)cc2)cc1, the IC50 was 1.56 µM. In the case of Cc1ccc(CNc2ccc(O)cc2)cc1, the IC50 is reported as “inactive”. COc1ccc(CNC(=S)Nc2cc(OC)ccc2OC)cc1 was tested, and the IC50 was > 200 µM (inactive). Cc1ccc(C(=O)NC2CC3CCCC(C2)N3C(=O)NC2CCCCC2)cc1 (stereo not drawn) was tested, and the IC50 was > 200 µM (inactive). O=c1[nH]c(-c2ccc(F)cc2)nc2c1sc(=S)n2-c1ccccc1 gave an IC50 of 19.6 µM. For C=C(C)Cn1c(N2CCN(CC)CC2)nc2c1c(=O)[nH]c(=O)n2C, the IC50 was > 200 µM (inactive). With COc1cc(/C=C2/SC(=S)N(Cc3ccccc3)C2=O)cc(Cl)c1O the IC50 was > 200 µM (inactive). CCCCn1c(NS(=O)(=O)c2ccccc2)c(C(=O)OCC)c2nc3ccccc3nc21 was tested, and the IC50 was > 200 µM (inactive). In the case of Cc1ccc(S(=O)(=O)N2CCC(=O)N(C(COCc3cccc(C)c3)Cc3ccccc3)CC2)cc1 (stereo not drawn), the IC50 is reported as > 200 µM (inactive). With Oc1ccc(N=Cc2sc3ccccc3c2Cl)cc1 the IC50 was “inactive”. In the case of Cc1c(C(=O)O)sc2nc(CSc3ncc(C(F)(F)F)cc3Cl)[nH]c(=O)c12, the IC50 is reported as > 200 µM (inactive). With COCCn1nnnc1C(c1cc2ccc(OC)cc2[nH]c1=O)N1CCc2ccccc2C1 (stereo not drawn) the IC50 was > 200 µM (inactive). In the case of O=c1[nH]c2ccc(S(=O)(=O)N3CCCCC3)cc2s1, the IC50 is reported as > 200 µM (inactive). With CN(C)c1cccc2c(C=C(C#N)C#N)ccc(N(C)C)c12 the IC50 was > 200 µM (inactive). In the case of Cc1ccc(NC(=O)CCC(=O)NNC(=O)c2ccccc2[N+](=O)[O-])c(C)c1, the IC50 is reported as > 200 µM (inactive). With O=C(Nc1ccc(Oc2ccsc2C(=O)O)cc1)c1ccccc1F the IC50 was > 200 µM (inactive). With O=c1[nH]n(-c2ccc([N+](=O)[O-])cc2)c(=O)c2ccccc12 the IC50 was 15.7 µM. For O=C(O)CCCCN1C(=O)/C(=C\c2ccc(OCc3ccccc3)c(OCc3ccccc3)c2)SC1=S, the IC50 was > 200 µM (inactive). In the case of CSc1ccccc1C(=O)NC(C)c1ccc(-n2ccnc2)cc1 (stereo not drawn), the IC50 is reported as > 200 µM (inactive). C=CCc1cccc2cc(C(=O)Nc3ccc(CC(=O)O)cc3)c(=O)oc12 was tested, and the IC50 was 17.3 µM. With O=C(O)c1cc(O)c2c(c1)C(=O)c1cccc(O)c1C2=O the IC50 was “inactive”. In the case of COc1cc(CNc2ccc(O)cc2)cc(Br)c1OCc1ccccc1F, the IC50 is reported as “inactive”. In the case of CCOC(=O)c1c(C)[nH]c2c1-c1ccccc1C(=O)C2=O, the IC50 is reported as > 200 µM (inactive). Work on O=C(O)CCCNc1cc(N2CCN(C(=O)c3ccco3)CC2)c2noc3c2c1C(=O)c1ccccc1-3 yielded an IC50 of 4.21 µM. With CC1CCCCC1NC(=O)CCS(=O)(=O)c1ccc2c(c1)NC(=O)CO2 (stereo not drawn) the IC50 was > 200 µM (inactive). Nc1ccc(O)c2c1C(=O)c1ccccc1C2=O showed an IC50 of 1.52 µM. In the case of Cc1cc(C)n(-c2ccc(Cl)c(C(=O)Nc3cc(C(F)(F)F)ccc3Cl)n2)n1, the IC50 is reported as > 200 µM (inactive). c1ccc(C(c2ccccc2)N2CCN(C(c3ccccn3)c3nnnn3C3CCCC3)CC2)cc1 (stereo not drawn) was tested, and the IC50 was > 200 µM (inactive). CN(C)CCOC(=O)CCc1ccccc1 was tested, and the IC50 was > 200 µM (inactive). O=C(Nc1nc(-c2cc3ccccc3oc2=O)cs1)c1ccco1 was tested, and the IC50 was > 200 µM (inactive). In the case of Nc1c(C(=O)NCc2ccco2)c2nc3ccccc3nc2n1Cc1ccccc1, the IC50 is reported as > 200 µM (inactive). O=C(Nc1cccc(Oc2ccc(C(=O)O)c(C(=O)O)c2)c1)c1ccc(-c2ccccc2)cc1 showed an IC50 of 8.53 µM. Cc1ccc(OCCCN2CCOCC2)cc1 was tested, and the IC50 was > 200 µM (inactive). For CC(=O)c1ccc(S(=O)(=O)Nc2ccc(-c3ccc4nnc(C)n4n3)cc2)cc1, the IC50 was > 200 µM (inactive). Compound CCc1nnc(NS(=O)(=O)c2ccc(NC(=S)NC(=O)/C=C/c3ccc(C(C)C)cc3)cc2)s1 has an IC50 of 19.2 µM. For COc1cc(CC(=O)NCc2ccc3c(c2)OCO3)cc(OC)c1OC, the IC50 was > 200 µM (inactive). Work on CN1C(=O)NC(c2ccccc2[N+](=O)[O-])C2=C1CCCC2=O (stereo not drawn) yielded an IC50 of 10.3 µM. For C[N+]1(CCNC(=O)/C=N/O)CCCCC1, the IC50 was > 200 µM (inactive). In the case of CC(C)(C)c1ccc(C(CC(=O)O)NC(=O)Cc2ccc(F)cc2)cc1 (stereo not drawn), the IC50 is reported as 25.6 µM. In the case of COC(=O)c1c(C(=O)OC)c2cccc3cc(-c4ccccc4)c4ccc1c4n32, the IC50 is reported as “inactive”. In the case of NS(=O)(=O)c1ccc(NC(=O)c2cccc(N3C(=O)c4ccccc4C3=O)c2)cc1, the IC50 is reported as “inactive”. In the case of O=C1CCCC(O)=C1N=Nc1ccc(C(=O)O)cc1, the IC50 is reported as > 200 µM (inactive). For CCCCn1c(NC(=O)c2ccco2)c(S(=O)(=O)c2ccc(C)cc2)c2nc3ccccc3nc21, the IC50 was > 200 µM (inactive). For Cc1cc(C)nc(N=Nc2c(O)n(Cc3ccc(Cl)cc3)c3ccccc23)n1, the IC50 was > 200 µM (inactive). For C[C@]12CCC3C(CC=C4C[C@@H](O)CC[C@@]43C)C1CCC2[C@]1(C)CCC(=O)O1 (stereo partly drawn), the IC50 was > 200 µM (inactive). O=C(O)c1cc(Cl)c(Cl)cc1C(=O)Nc1cccc2cccnc12 was tested, and the IC50 was > 200 µM (inactive). In the case of O=C(Nc1ccc(Cl)cc1)OCc1cn(-c2ccccc2)nn1, the IC50 is reported as > 200 µM (inactive). Cc1ccc2c(c1)N(CC(=O)NCCc1ccc(Cl)cc1)C(=O)c1cccnc1O2 was tested, and the IC50 was > 200 µM (inactive). In the case of O=C1C=C(NCc2ccccc2)c2ccccc2C1=O, the IC50 is reported as > 200 µM (inactive). With Cc1ccc(-n2cccn2)c([C@@H]2C[C@H]3CN(C)C(=O)[C@]34CCCN24)c1 the IC50 was > 200 µM (inactive). O=C(Nc1ccc(S(=O)(=O)N2CCOCC2)cc1)c1ccc(=O)[nH]c1 was tested, and the IC50 was 20.5 µM. CCN(CC)CCOC(=O)c1ccc(N/C=C(/C#N)c2nc(-c3ccc(OC)c(OC)c3)cs2)cc1 showed an IC50 of 12.5 µM. In the case of CCN(CC)c1ccc(C=N/C(C#N)=C(\N)C#N)cc1, the IC50 is reported as > 200 µM (inactive). In the case of O=C(CSc1ccc(Br)c2cccc(Cl)c12)Nc1ccc(S(=O)(=O)Nc2nccs2)cc1, the IC50 is reported as > 200 µM (inactive). Cc1c(Cc2ccccc2)c(=O)oc2c(C)c(OCC(=O)N[C@@H](Cc3ccccc3)C(=O)O)ccc12 was tested, and the IC50 was “inactive”.
